Experimental data taken from patent US11407725B2 (The Board of Trustees of the University of Illinois, priority 2018, dated 2022).

Legend:
ALDH isoforms = test: BAAA isoform selectivity assay; assay type: biochemical, human; conditions: 18 μM BAAA, 20 units of each isoform
Experimental: BAAA activation was determined using UV/Vis spectroscopy. A 2 mM stock solution of BAAA was prepared in DMSO and activated with 2M HCL as described in the ALDEFLUOR™ Kit protocol ([…] Technologies Inc.). Immediately before measurement, BAAA was added to the reaction mixture described above to a final concentration of 18 μM. The solution was mixed vigorously, and the reaction proceeded at room temperature. UV/Vis absorbance spectra were taken from 300 to 500 nm every 30 seconds for 15 minutes. The rate of NADH produced per minute was calculated according to the absorbance at 340 nm (ε=[…] cm^−1). All measurements were performed in triplicate and reported as the average±standard deviation. 20 units of enzyme and 18 μM of BAAA were necessary to detect a significant increase in absorbance at 340 nm for the ALDH1A1 isoform.

[1] = Photophysical properties (absorbance, emission, extinction coefficient, quantum yield); assay type: physicochemical; conditions: Probes 1-8
ALDH1A1 [2] = molecular target: T1, ALDH1A1 (Homo sapiens, UniProt P00352); test: ALDH isoform selectivity of red probes: ALDH1A1; assay type: biochemical; conditions: Table 2
T1 construct: made in house
T1 sequence (P00352 1-501): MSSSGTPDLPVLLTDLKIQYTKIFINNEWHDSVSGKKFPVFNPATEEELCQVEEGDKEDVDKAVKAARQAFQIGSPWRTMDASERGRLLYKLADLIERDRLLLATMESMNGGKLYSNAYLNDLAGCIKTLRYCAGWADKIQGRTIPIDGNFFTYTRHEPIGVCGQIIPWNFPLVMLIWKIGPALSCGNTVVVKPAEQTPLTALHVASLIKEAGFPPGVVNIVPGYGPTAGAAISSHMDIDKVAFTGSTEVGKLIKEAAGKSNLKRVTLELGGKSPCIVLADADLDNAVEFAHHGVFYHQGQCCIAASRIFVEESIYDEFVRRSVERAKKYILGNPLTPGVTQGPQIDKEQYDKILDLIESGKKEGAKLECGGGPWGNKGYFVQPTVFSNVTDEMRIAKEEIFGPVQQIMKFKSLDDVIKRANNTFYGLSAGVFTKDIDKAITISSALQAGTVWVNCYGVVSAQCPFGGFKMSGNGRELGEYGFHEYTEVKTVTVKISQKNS
Experimental: (§1) Each ALDH isoform was added to a 50 mM triethanolamine solution (pH 7.4) containing 2.0 mM NAD^+ and 100 μM substrate at room temperature. Benzaldehyde was the substrate for ALDH3A1. Propanal was the substrate for all other isoforms. ALDH isoform activity was determined by monitoring the rate of NADH production through the increase in absorbance at 340 nm (ε=6220 M^−1cm^−1). For these assays, 1 unit is defined as the amount of enzyme that catalyzes the conversion of […] per minute. For every combination of dye and enzyme, 2 μM dye was preincubated with 2.0 mM NAD^+ in 50 mM triethanolamine solution (pH 7.4). The reaction was initiated by addition of 1 unit of ALDH. Dyes were excited at 590 nm, and fluorescence was measured continuously at 610 nm.

ALDH1A3 = molecular target: T2, ALDH1A3 (Homo sapiens, UniProt P47895); test: ALDH isoform selectivity of red probes: ALDH1A3; assay type: biochemical; conditions: Table 2
T2 construct: made in house
T2 sequence (P47895 1-512): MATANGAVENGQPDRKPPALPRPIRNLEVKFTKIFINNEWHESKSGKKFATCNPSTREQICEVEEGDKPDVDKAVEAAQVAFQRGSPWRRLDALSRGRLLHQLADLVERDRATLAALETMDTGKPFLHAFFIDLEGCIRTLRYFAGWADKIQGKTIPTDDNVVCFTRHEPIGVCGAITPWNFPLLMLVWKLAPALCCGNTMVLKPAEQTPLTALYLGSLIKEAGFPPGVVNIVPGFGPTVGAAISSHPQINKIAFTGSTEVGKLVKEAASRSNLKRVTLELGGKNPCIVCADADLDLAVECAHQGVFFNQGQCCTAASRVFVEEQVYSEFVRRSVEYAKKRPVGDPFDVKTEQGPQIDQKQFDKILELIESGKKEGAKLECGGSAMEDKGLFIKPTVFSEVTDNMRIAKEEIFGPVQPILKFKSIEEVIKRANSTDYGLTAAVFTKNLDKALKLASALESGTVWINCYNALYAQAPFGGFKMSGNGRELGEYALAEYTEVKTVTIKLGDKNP
Experimental: as §1

ALDH1A1 [3] = molecular target: T1, ALDH1A1; test: ALDH isoform selectivity of red probes: ALDH1A1; assay type: biochemical

SMILES	reactivity with ALDH isoforms (ALDH isoforms)	Quantum Yield [1]	Enzyme Activity 1A1 (ALDH1A1 [2])	Enzymatic Turn On (ALDH1A1 [2]; ALDH1A1, 2 μM dye)	Enzyme Activity 1A3 (ALDH1A3)	enzyme kinetics with ALDH1A1 (ALDH1A1 [3])
Cc1cc(C)n2c1C=C1C=CC(CCC(=O)NCC=O)=[N+]1[B-]2(F)F [BAAA, BODIPY-aminoacetaldehyde]	react with a variety of isoforms					
C[Si]1(C)C2=CC(=O)C=CC2=C(c2ccc(C=O)cc2C(F)(F)F)c2ccc(O)cc21 [Probe 3, 4-(7-Hydroxy-5,5-dimethyl-3-oxo-3,5-dihydrodibenzo[b, e]silin-10-yl)-3-(trifluoromethyl)benzaldehyde]		0.25	Medium	2.7	Low	slow enzyme kinetics
